Laboratory results from PMC4032177 (Journal of medicinal chemistry, 2013).

Legend:
MLK3 = MLK3 (Homo sapiens, UniProt Q16584); assay: Radiometric MLK3 kinase inhibition assay; format: biochemical
AKT2 = AKT2 (Homo sapiens, UniProt P31751); assay: Kinase specificity profiling; format: binding
DLK [1] = target: T1, DLK (Homo sapiens, UniProt Q12852); assay: DiscoverRx ScanMax kinome binding scan
T1 sequence (Q12852 1-859): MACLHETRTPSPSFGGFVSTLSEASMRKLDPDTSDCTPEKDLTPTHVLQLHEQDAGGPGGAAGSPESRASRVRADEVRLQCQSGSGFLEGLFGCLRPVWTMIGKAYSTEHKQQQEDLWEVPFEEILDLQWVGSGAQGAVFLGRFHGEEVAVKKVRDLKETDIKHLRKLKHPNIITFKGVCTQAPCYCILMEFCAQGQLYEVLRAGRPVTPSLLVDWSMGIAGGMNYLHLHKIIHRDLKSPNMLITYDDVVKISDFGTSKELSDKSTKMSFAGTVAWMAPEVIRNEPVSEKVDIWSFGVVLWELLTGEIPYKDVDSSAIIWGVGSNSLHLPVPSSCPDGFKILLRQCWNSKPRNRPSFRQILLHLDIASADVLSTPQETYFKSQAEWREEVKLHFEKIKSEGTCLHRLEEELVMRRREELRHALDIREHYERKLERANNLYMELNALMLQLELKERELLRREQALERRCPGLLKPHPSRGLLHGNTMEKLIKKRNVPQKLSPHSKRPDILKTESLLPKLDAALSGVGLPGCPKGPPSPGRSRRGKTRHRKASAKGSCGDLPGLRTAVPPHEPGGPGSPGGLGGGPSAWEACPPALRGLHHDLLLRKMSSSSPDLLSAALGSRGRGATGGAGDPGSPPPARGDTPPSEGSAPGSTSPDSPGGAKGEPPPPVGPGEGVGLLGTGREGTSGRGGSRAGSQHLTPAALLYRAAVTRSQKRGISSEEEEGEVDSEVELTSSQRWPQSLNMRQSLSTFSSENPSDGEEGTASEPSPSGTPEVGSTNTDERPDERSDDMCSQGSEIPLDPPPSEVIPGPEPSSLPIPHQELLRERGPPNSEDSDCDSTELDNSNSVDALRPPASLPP

[2] = test system: phosphorylated JNK (pJNK) in brain; assay: Inhibition of JNK phosphorylation in HIV-Tat treated mice; format: in vivo, C57BL/6 mice; details: 10 mg/kg i.p. every twelve hours
ERK2 = ERK2 (Homo sapiens, UniProt P28482); assay: Kinase specificity profiling; format: binding
Chain of ERK2 (P28482 whole entry): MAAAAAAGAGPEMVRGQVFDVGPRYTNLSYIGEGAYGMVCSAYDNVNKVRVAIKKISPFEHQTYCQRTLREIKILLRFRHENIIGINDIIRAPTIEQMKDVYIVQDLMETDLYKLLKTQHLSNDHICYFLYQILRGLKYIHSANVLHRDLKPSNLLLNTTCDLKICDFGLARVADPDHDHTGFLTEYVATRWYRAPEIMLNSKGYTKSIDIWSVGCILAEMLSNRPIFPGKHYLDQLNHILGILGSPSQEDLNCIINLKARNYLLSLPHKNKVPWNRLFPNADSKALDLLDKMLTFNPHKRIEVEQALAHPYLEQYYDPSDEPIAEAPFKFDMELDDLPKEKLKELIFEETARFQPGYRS

BRAF = BRAF (Homo sapiens, UniProt P15056); assay: Kinase specificity profiling; format: binding
Chain of BRAF (P15056 whole entry): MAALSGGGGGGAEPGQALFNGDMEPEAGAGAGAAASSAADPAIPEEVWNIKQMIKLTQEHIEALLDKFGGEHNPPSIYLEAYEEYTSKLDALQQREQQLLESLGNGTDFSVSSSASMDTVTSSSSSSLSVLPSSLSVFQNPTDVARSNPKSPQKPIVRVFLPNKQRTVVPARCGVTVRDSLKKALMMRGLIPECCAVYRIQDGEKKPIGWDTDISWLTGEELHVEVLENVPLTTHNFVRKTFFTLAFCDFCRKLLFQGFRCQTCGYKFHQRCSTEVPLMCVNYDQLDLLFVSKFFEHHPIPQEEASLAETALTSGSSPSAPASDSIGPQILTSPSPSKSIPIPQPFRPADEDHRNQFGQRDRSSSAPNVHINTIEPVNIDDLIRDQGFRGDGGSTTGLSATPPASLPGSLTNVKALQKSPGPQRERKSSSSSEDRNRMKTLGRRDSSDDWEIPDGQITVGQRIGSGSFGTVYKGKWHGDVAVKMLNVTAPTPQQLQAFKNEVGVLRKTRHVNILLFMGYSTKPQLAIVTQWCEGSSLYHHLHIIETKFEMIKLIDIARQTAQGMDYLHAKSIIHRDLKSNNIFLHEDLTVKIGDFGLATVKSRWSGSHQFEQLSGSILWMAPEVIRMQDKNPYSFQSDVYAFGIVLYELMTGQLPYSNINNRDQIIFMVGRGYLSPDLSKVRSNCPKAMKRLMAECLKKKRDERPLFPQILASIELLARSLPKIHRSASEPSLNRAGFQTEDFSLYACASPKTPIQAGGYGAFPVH

DLK [3] = target: T1, DLK; assay: DLK kinase inhibition; format: biochemical
AKT1 = AKT1 (Homo sapiens, UniProt P31749); assay: Kinase specificity profiling; format: binding
Chain of AKT1 (P31749 whole entry): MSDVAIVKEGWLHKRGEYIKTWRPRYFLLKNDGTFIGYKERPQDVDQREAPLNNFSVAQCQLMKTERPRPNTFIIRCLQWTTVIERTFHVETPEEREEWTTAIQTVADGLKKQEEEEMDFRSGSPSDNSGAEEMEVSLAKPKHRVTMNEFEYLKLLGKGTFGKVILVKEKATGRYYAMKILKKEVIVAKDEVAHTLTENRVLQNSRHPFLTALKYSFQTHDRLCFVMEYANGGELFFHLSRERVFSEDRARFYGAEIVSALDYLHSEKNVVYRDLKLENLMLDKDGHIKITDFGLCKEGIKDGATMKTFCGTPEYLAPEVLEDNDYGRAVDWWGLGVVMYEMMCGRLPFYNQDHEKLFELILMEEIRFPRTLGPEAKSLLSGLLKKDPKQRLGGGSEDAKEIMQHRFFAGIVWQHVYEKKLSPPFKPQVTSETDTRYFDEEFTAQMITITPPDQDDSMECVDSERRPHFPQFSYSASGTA

CDK11 = CDK11 (Homo sapiens, UniProt Q9BWU1); assay: DiscoverRx ScanMax kinome binding scan; details: read-out: CDK11 % inhibition (ScanMax)
Chain of CDK11 (Q9BWU1 whole entry): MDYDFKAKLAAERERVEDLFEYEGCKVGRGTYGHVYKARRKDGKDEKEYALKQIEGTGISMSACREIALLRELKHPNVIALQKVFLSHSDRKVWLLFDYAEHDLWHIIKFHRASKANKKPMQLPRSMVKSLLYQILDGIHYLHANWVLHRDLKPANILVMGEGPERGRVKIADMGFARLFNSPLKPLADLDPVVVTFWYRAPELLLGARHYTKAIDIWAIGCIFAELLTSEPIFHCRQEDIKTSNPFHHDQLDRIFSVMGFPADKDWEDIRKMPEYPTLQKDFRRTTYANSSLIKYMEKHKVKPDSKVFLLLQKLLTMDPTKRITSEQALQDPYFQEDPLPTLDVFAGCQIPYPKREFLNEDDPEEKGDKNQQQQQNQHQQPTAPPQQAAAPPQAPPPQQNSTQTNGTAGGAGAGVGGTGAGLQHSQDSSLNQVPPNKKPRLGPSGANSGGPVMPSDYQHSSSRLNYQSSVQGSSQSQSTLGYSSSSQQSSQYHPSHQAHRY

ERK1 = ERK1 (Homo sapiens, UniProt P27361); assay: Kinase specificity profiling; format: binding
Chain of ERK1 (P27361 whole entry): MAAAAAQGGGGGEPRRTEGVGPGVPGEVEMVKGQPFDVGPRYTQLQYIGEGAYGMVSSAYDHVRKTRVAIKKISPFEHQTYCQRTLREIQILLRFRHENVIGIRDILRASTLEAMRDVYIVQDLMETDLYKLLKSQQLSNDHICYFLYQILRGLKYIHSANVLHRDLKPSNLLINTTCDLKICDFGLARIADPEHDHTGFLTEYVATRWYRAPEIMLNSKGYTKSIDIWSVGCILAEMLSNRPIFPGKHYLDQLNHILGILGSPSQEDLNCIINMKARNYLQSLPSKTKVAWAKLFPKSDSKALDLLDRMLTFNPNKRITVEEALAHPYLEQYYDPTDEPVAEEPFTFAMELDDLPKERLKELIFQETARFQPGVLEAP

EGFR = EGFR (Homo sapiens, UniProt P00533); assay: Kinase specificity profiling; format: binding
Chain of EGFR (P00533 25-1210): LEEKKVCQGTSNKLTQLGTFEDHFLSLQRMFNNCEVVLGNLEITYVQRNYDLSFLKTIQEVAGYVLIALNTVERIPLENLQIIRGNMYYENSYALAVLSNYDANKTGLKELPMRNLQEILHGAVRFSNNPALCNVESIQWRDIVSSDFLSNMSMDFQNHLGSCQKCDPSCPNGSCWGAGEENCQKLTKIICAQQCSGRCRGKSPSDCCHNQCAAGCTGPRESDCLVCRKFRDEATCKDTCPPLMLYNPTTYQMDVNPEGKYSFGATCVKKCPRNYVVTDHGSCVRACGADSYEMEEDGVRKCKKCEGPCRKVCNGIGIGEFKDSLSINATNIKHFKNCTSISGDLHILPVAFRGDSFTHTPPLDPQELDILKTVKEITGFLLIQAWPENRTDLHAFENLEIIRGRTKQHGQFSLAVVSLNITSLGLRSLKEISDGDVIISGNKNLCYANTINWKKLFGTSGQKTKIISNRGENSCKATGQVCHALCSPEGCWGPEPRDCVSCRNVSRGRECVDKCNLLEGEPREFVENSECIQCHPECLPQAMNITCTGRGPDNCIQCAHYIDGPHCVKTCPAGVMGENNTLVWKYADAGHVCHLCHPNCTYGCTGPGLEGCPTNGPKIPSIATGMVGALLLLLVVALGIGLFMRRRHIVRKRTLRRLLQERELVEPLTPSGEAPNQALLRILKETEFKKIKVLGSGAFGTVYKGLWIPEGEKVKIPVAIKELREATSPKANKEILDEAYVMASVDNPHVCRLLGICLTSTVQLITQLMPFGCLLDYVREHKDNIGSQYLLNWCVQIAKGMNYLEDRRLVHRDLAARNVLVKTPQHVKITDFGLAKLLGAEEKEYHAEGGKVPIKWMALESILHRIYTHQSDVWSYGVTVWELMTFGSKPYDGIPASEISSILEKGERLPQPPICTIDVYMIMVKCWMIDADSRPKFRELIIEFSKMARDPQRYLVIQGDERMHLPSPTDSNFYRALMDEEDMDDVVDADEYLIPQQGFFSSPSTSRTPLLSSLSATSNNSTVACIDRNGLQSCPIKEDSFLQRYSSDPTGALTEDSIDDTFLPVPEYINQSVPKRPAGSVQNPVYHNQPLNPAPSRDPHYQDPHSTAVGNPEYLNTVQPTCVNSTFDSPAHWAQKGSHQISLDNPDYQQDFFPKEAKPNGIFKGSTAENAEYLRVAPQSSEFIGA

AKT3 = AKT3 (Homo sapiens, UniProt Q9Y243); assay: Kinase specificity profiling; format: binding
Chain of AKT3 (Q9Y243 whole entry): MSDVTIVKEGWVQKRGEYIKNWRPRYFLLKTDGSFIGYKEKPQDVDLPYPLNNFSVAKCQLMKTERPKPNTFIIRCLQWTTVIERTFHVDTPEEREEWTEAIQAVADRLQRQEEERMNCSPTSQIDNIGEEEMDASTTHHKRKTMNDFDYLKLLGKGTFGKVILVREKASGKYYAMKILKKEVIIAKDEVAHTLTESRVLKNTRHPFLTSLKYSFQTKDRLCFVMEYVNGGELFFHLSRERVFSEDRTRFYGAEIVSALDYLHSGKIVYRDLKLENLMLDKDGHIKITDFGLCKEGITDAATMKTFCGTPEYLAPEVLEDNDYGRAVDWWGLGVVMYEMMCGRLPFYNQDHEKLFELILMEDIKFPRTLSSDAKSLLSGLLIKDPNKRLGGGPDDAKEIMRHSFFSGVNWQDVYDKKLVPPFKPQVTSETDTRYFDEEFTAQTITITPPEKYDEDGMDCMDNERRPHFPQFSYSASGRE

LRRK2 = LRRK2 (Homo sapiens, UniProt Q5S007); assay: DiscoverRx ScanMax kinome binding scan; details: read-out: LRRK2 % inhibition of binding (ScanMax), 1 μM

Chain of MLK3 (Q16584 whole entry): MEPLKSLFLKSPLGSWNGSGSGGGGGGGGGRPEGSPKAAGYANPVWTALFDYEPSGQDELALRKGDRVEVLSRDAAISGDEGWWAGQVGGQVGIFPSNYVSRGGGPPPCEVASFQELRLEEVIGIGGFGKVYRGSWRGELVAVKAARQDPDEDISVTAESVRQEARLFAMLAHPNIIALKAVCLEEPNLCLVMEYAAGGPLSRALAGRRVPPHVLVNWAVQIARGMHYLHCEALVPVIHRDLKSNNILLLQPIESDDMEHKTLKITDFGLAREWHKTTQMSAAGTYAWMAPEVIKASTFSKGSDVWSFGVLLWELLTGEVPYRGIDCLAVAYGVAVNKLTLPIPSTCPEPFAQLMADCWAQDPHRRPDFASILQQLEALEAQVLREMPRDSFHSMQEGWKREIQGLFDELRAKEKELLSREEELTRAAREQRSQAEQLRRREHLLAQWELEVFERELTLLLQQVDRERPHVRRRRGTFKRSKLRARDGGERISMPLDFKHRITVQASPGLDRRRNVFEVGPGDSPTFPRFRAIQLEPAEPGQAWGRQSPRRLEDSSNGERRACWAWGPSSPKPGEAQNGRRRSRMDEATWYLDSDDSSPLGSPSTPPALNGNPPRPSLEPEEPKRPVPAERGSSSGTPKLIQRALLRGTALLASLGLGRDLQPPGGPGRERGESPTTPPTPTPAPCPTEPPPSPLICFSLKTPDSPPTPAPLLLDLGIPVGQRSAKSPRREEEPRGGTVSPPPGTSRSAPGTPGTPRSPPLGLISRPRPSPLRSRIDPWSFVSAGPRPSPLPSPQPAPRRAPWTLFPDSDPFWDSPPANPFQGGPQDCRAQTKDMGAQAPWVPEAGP

CN1CCN(Cc2ccc(-c3cnc4[nH]cc(-c5ccc6[nH]ccc6c5)c4c3)cc2)CC1 [Compound 1, 3-(1H-Indol-5-yl)-5-(4-((4-methylpiperazin-1-yl)methyl)phenyl)-1H-pyrrolo[2,3-b]pyridine]
Ki (MLK3): ~10 nM | Activity against AKT2 (AKT2): essentially inactive | Kd (DLK [1]): 70 nM | pJNK levels in saline-treated animals [2]: no effect | Activity against ERK2 (ERK2): essentially inactive | Activity against BRAF (BRAF): essentially inactive | IC50 (DLK [3]): 150 nM | Activity against AKT1 (AKT1): essentially inactive | inhibition at 1 µM (CDK11): > 90% | Activity against ERK1 (ERK1): essentially inactive | Activity against EGFR (EGFR): essentially inactive | Activity against AKT3 (AKT3): essentially inactive

CCSCc1ccc2c(c1)c1c3c(c4c5cc(CSCC)ccc5n5c4c1n2[C@H]1C[C@](O)(C(=O)OC)[C@]5(C)O1)CNC3=O [Compound 2, (9S,10R,12R)-9,12-Epoxy-1H-diindolo[1,2,3-fg:3′,2′,1′-kl]pyrrolo[3,4-i][1,6]benzodiazocine-10-carboxylic acid, 5,16-bis[(ethylthio)methyl]-2,3,9,10,11,12-hexahydro-10-hydroxy-9-methyl-1-oxo methyl ester]
inhibition at 1 µM (LRRK2): > 99%

COc1cc(-c2cnc3[nH]c(=O)n(-c4ccc5[nH]ccc5c4)c3n2)cc(OC)c1OC [Compound 7, 1-(1H-Indol-5-yl)-6-(3,4,5-trimethoxyphenyl)-1H-imidazo[4,5-b]pyrazin-2(3H)-one]
IC50 (MLK3): 40 to 120 nM
